Laboratory results reported in patent publication US20240246960A1 (adMare Therapeutics Society, priority 2021, published 2024).

Key:
DNA-PK = molecular target: T1, DNA-PK (Homo sapiens, UniProt P78527); assay: DNA-PK Assay for Biochemical Enzymatic Inhibition (ADP Glo Kinase assay); settings: Table 1
T1 construct: purchased Invitrogen PR9107A
Outline: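 Human DNA-PK (25 ng) preincubated 15 min with compounds (ten three-fold dilutions) in HEPES pH 7.5, MgCl2, KCl, calf thymus DNA buffer, then substrate 434.4 μM and ATP 64.4 μM (final) for 60 min at room temperature. ADP-Glo luminescence; percent inhibition fitted by four-parameter regression for IC50.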

[1] = Hepatocyte stability assay, mouse hepatocytes; assay type: in vitro ADME; settings: for hepatocyte CLint at 1 uM: male, CD-1, mouse, cryopreserved hepatocytes, pH 7.3, 0.7 million cells per mL, 1 uM compound
Experimental: (§1) Cryopreserved mouse hepatocytes were obtained from a pool of 10 or more male CD-1 mice. Cryopreserved human hepatocytes were obtained from a pool of 10 or more donors of mixed gender. Final hepatocyte density was 0.7 million viable cells per mL and test compound concentration was 1 uM with a maximum of 0.01% DMSO. Cryopreserved hepatocytes were thawed, washed, and resuspended in Krebs-Heinslet buffer (pH 7.3). The reaction was initiated by adding the test compound into cell suspension and incubated for 0, […], 1, 1.5, and 2 h, respectively, at 37° C./5% CO2. The reaction was stopped by adding acetonitrile into the incubation mixture. Samples were then mixed, transferred completely to another 96-well plate, and centrifuged. Supernatants were used for HPLC-MS/MS analysis. […] Peak areas corresponding to the test compound were recorded.

[2] = Hepatocyte stability assay, human hepatocytes; assay type: in vitro ADME; settings: for hepatocyte CLint at 1 uM: both sexes, human, cryopreserved hepatocytes, pH 7.3, 0.7 million cells per mL, 1 uM compound
Experimental: as §1

[3] = Microsomal stability assay, mouse liver microsomes; settings: for microsomal CLint at 0.1 uM: male, CD-1, mouse, liver microsomes, pH 7.4, Microsomal Stability Mouse Clint, 0.1 mg/mL microsomes, 0.1 uM compound
Experimental: Mouse liver microsomes were obtained from a pool of 250 or more male CD-1 mice. […] Final microsomal concentration was 0.1 mg/mL and test compound concentration was 0.1 uM with a maximum of 0.01% DMSO. The test compound was pre-incubated with pooled liver microsomes in phosphate buffer (pH 7.4) for 5 min in a 37° C. shaking water bath. The reaction was initiated by adding NADPH-generating system and incubated for 0, 15, 30, 45, and 60 min. The reaction was stopped by transferring the incubation mixture to acetonitrile/methanol. Samples were then mixed and centrifuged. Supernatants were used for HPLC-MS/MS analysis. The HPLC system consisted of a binary LC pump with autosampler, a C-18 column, and a gradient. Peak areas corresponding to the test compound were recorded. The compound remaining was calculated by comparing the peak area at each time point to time zero. The half-life was calculated from the slope of the initial linear range of the logarithmic curve of compound remaining (%) vs. time, assuming first order kinetics. In addition, the intrinsic clearance (Clint) was calculated from the half-life.

IC50 (DNA-PK) [nM] | Hepatocyte Stability (mouse) % rem. 120 min [1] | hepatocyte CLint at 1 uM [1] [µL/min/1e6 cells] | Hepatocyte Stability (human) % rem. 120 min [2] | hepatocyte CLint at 1 uM [2] [µL/min/1e6 cells] | Microsomal Stability (mouse) % rem. 60 min [3] | microsomal CLint at 0.1 uM [3] [µL/min/mg] | SMILES
< 0.5 | H (% remaining = 75-100%) | < 8.2 | G (% remaining = 50-75%) | < 8.2 | – | – | NC(=O)c1cnc(N[C@H]2CC[C@@H](Oc3nc(N4CCOCC4)cc4ncccc34)CC2)nc1 [Compound 52, 2-(((1s,4s)-4-((7-morpholino-1,6-naphthyridin-5-yl)oxy)cyclohexyl)amino)pyrimidine-5-carboxamide]
0.5 to 1 | H (% remaining = 75-100%) | < 8.2 | G (% remaining = 50-75%) | < 8.2 | – | – | CN(C)C(=O)c1cnc(N[C@H]2CC[C@@H](Oc3nc(N4CCOCC4)cc4ncccc34)CC2)nc1 [Compound 53, N,N-dimethyl-2-(((1s,4s)-4-((7-morpholino-1,6-naphthyridin-5-yl)oxy)cyclohexyl)amino)pyrimidine-5-carboxamide]
< 0.5 | F (% remaining = 25-50%) | > 8.2 | G (% remaining = 50-75%) | < 8.2 | – | – | c1cnc2cc(N3CCOCC3)nc(O[C@H]3CC[C@@H](Nc4ncnc5ccoc45)CC3)c2c1 [Compound 80a, N-((1s,4s)-4-((7-morpholino-1,6-naphthyridin-5-yl)oxy)cyclohexyl)furo[3,2-d]pyrimidin-4-amine]
< 0.5 | F (% remaining = 25-50%) | > 8.2 | G (% remaining = 50-75%) | < 8.2 | – | – | Cc1nc(N[C@H]2CC[C@@H](Oc3nc(N4CCOCC4)cc4ncccc34)CC2)c2occc2n1 [Compound 81, 2-methyl-N-((1s,4s)-4-((7-morpholino-1,6-naphthyridin-5-yl)oxy)cyclohexyl)furo[3,2-d]pyrimidin-4-amine]
< 0.5 | E (% remaining = 0-25%) | > 8.2 | F (% remaining = 25-50%) | > 8.2 | – | – | c1cnc2cc(N3CCOCC3)nc(O[C@H]3CC[C@@H](Nc4ncnc5occc45)CC3)c2c1 [Compound 82, N-((1s,4s)-4-((7-morpholino-1,6-naphthyridin-5-yl)oxy)cyclohexyl)furo[2,3-d]pyrimidin-4-amine]
< 0.5 | F (% remaining = 25-50%) | > 8.2 | – | – | F (% remaining = 25-50%) | > 116 | O=C(N[C@H]1CC[C@@H](Oc2nc(N3CCOCC3)cc3ncccc23)CC1)c1cccnc1 [Compound 115, N-((1s,4s)-4-((7-morpholino-1,6-naphthyridin-5-yl)oxy)cyclohexyl)nicotinamide]
0.5 to 1 | E (% remaining = 0-25%) | > 8.2 | – | – | F (% remaining = 25-50%) | > 116 | O=C(N[C@H]1CC[C@@H](Oc2nc(N3CCOCC3)cc3ncccc23)CC1)c1ccncn1 [Compound 118, N-((1s,4s)-4-((7-morpholino-1,6-naphthyridin-5-yl)oxy)cyclohexyl)pyrimidine-4-carboxamide]
< 0.5 | F (% remaining = 25-50%) | > 8.2 | – | – | E (% remaining = 0-25%) | > 116 | O=C(N[C@H]1CC[C@@H](Oc2nc(N3CCOCC3)cc3ncccc23)CC1)c1nccs1 [Compound 135, N-((1s,4s)-4-((7-morpholino-1,6-naphthyridin-5-yl)oxy)cyclohexyl)thiazole-2-carboxamide]

More lines, now with the values behind:

SMILES | IC50 (DNA-PK) [nM] | Hepatocyte Stability (mouse) % rem. 120 min [1] | hepatocyte CLint at 1 uM [1] [µL/min/1e6 cells] | Hepatocyte Stability (human) % rem. 120 min [2] | hepatocyte CLint at 1 uM [2] [µL/min/1e6 cells] | Microsomal Stability (mouse) % rem. 60 min [3] | microsomal CLint at 0.1 uM [3] [µL/min/mg]
FC(F)c1ccc2c(O[C@H]3CC[C@@H](Nc4ncccn4)CC3)nc(N3CCOCC3)cc2n1 [Compound 21, N-((1s,4s)-4-((2-(Difluoromethyl)-7-morpholino-1,6-naphthyridin-5-yl)oxy)cyclohexyl)pyrimidin-2-amine] | 0.5 to 1 | G (% remaining = 50-75%) | < 8.2 | G (% remaining = 50-75%) | < 8.2 | – | –
FC(F)c1ccnc2cc(N3CCOCC3)nc(O[C@H]3CC[C@@H](Nc4ncccn4)CC3)c12 [Compound 22, N-((1s,4s)-4-((4-(Difluoromethyl)-7-morpholino-1,6-naphthyridin-5-yl)oxy)cyclohexyl)pyrimidin-2-amine] | < 0.5 | F (% remaining = 25-50%) | > 8.2 | E (% remaining = 0-25%) | > 8.2 | – | –
c1cnc2cc(N3CCOCC3)nc(O[C@H]3CC[C@@H](Nc4cncnc4)CC3)c2c1 [Compound 28, N-((1s,4s)-4-((7-morpholino-1,6-naphthyridin-5-yl)oxy)cyclohexyl)pyrimidin-5-amine] | 0.5 to 1 | E (% remaining = 0-25%) | > 8.2 | – | – | E (% remaining = 0-25%) | > 116
Cn1cnc(N[C@H]2CC[C@@H](Oc3nc(N4CCOCC4)cc4ncccc34)CC2)n1 [Compound 31, 1-methyl-N-((1s,4s)-4-((7-morpholino-1,6-naphthyridin-5-yl)oxy)cyclohexyl)-1H-1,2,4-triazol-3-amine] | < 0.5 | H (% remaining = 75-100%) | < 8.2 | F (% remaining = 25-50%) | > 8.2 | – | –
COc1ccc(N[C@H]2CC[C@@H](Oc3nc(N4CCOCC4)cc4ncccc34)CC2)nn1 [Compound 38, 6-methoxy-N-((1s,4s)-4-((7-morpholino-1,6-naphthyridin-5-yl)oxy)cyclohexyl)pyridazin-3-amine] | 0.5 to 1 | F (% remaining = 25-50%) | > 8.2 | E (% remaining = 0-25%) | > 8.2 | – | –
Nc1cnc(N[C@H]2CC[C@@H](Oc3nc(N4CCOCC4)cc4ncccc34)CC2)nc1 [Compound 43, N2-((1s,4s)-4-((7-morpholino-1,6-naphthyridin-5-yl)oxy)cyclohexyl)pyrimidine-2,5-diamine] | < 0.5 | F (% remaining = 25-50%) | > 8.2 | G (% remaining = 50-75%) | < 8.2 | – | –
CS(=O)(=O)Nc1cnc(N[C@H]2CC[C@@H](Oc3nc(N4CCOCC4)cc4ncccc34)CC2)nc1 [Compound 44, N-(2-(((1s,4s)-4-((7-morpholino-1,6-naphthyridin-5-yl)oxy)cyclohexyl)amino)pyrimidin-5-yl)methanesulfonamide] | < 0.5 | G (% remaining = 50-75%) | < 8.2 | H (% remaining = 75-100%) | < 8.2 | – | –
Oc1cnc(N[C@H]2CC[C@@H](Oc3nc(N4CCOCC4)cc4ncccc34)CC2)nc1 [Compound 45, 2-(((1s,4s)-4-((7-morpholino-1,6-naphthyridin-5-yl)oxy)cyclohexyl)amino)pyrimidin-5-ol] | 0.5 to 1 | F (% remaining = 25-50%) | > 8.2 | F (% remaining = 25-50%) | < 8.2 | – | –
NS(=O)(=O)c1cnc(N[C@H]2CC[C@@H](Oc3nc(N4CCOCC4)cc4ncccc34)CC2)nc1 [Compound 46, 2-(((1s,4s)-4-((7-morpholino-1,6-naphthyridin-5-yl)oxy)cyclohexyl)amino)pyrimidine-5-sulfonamide] | 0.5 to 1 | G (% remaining = 50-75%) | < 8.2 | G (% remaining = 50-75%) | < 8.2 | – | –
Cc1ccnc(N[C@H]2CC[C@@H](Oc3nc(N4CCOCC4)cc4ncccc34)CC2)n1 [Compound 48, 4-methyl-N-((1s,4s)-4-((7-morpholino-1,6-naphthyridin-5-yl)oxy)cyclohexyl)pyrimidin-2-amine] | < 0.5 | F (% remaining = 25-50%) | > 8.2 | F (% remaining = 25-50%) | < 8.2 | – | –
COc1ccnc(N[C@H]2CC[C@@H](Oc3nc(N4CCOCC4)cc4ncccc34)CC2)n1 [Compound 49, 4-methoxy-N-((1s,4s)-4-((7-morpholino-1,6-naphthyridin-5-yl)oxy)cyclohexyl)pyrimidin-2-amine] | 0.5 to 1 | F (% remaining = 25-50%) | > 8.2 | F (% remaining = 25-50%) | > 8.2 | – | –
